# Test results reported in PubChem BioAssay AID588593 (Sanford-Burnham Center for Chemical Genomics, 2011).
# Several values for one entry are separate records, joined by “and”; a condition that tells them apart may be missing. Identical values can stand only once. Activity calls are given as the source filed them. No rule for the calls is given here.
# Target: glucose-6-phosphate dehydrogenase-6-phosphogluconolactonase (Plasmodium falciparum 3D7)
# Assay: PfG6PD enzyme inhibitors, kinetic NADPH readout, SAR follow-up, orthogonal assay, biochemical, kinetic NADPH detection (AID 588593)
# Settings: recombinant PfG6PD-6PGL
row,IC50,SMILES
1,> 80 µM (inactive),COc1ccc(/C=C2/Sc3ccc(C(=O)NCCN4CCCC4)cc3NC2=O)cc1
2,3.17 µM,CCN1CCCC1CNC(=O)c1ccc2c(c1)NC(=O)/C(=C\c1ccccc1F)S2 (configuration not stated)
3,58.5 µM,COc1cccc(/C=C2/Sc3ccc(C(=O)NCCN4CCCCCC4)cc3NC2=O)c1
4,30.8 µM,CCN1CCC[C@@H]1CNC(=O)c1ccc2c(c1)NC(=O)/C(=C/c1ccccc1F)S2
5,45.2 µM,CN1CCCC1CCNC(=O)c1ccc2c(c1)NC(=O)/C(=C/c1ccccc1F)S2 (configuration not stated)
6,> 80 µM (inactive),O=C1Nc2cc(C(=O)NCCN3CCOCC3)ccc2S/C1=C\c1ccccc1F
7,12.5 µM,CCN(CC)CCNC(=O)c1ccc2c(c1)NC(=O)/C(=C\c1ccc(OC)cc1)S2
8,45.9 µM,CCCN(CCC)CCNC(=O)c1ccc2c(c1)NC(=O)/C(=C\c1ccc(C)cc1)S2
9,9.49 µM,CCN1CCC[C@H]1CNC(=O)c1ccc2c(c1)NC(=O)/C(=C/c1ccccc1F)S2
10,> 80 µM (inactive),CCN(CC)CCNC(=O)c1ccc2c(c1)NC(=O)CO2
11,8.77 µM,Cc1cccc(/C=C2/Sc3ccc(C(=O)NCCN4CCCC4)cc3NC2=O)c1
12,35.3 µM,COc1cccc(/C=C2/Sc3ccc(C(=O)NCCN4CCCC4)cc3NC2=O)c1
13,18.4 µM,CCN(CC)CCNC(=O)c1ccc2c(c1)NC(=O)/C(=C/c1ccccc1)S2
14,> 80 µM (inactive),O=C1Nc2cc(C(=O)NCCN3CCCC3)ccc2S/C1=C/c1ccccc1Cl
15,44.9 µM,CCN(CC)CCNC(=O)c1ccc2c(c1)NC(=O)/C(=C\c1ccccc1Cl)S2
16,41.8 µM and 57.4 µM,CCN(CC)CCNC(=O)c1ccc2c(c1)NC(=O)c1ccccc1S2
17,> 80 µM (inactive),COc1ccc(/C=C2/Sc3ccc(C(=O)NCCN(C)C)cc3NC2=O)cc1
18,27.2 µM,CCCN(CCC)CCNC(=O)c1ccc2c(c1)NC(=O)/C(=C/c1ccccc1)S2
19,24 µM,O=C1Nc2cc(C(=O)NCCN3CCCCC3)ccc2S/C1=C\c1ccccc1F
20,5.01 µM,CCN1CCCC1CNC(=O)c1ccc2c(c1)NC(=O)/C(=C/c1ccccc1C)S2 (configuration not stated)
21,> 80 µM (inactive),CCN(CC)CCNC(=O)c1ccc2c(c1)N(Cc1cc(C)ccc1C)C(=O)c1ccccc1S2
22,9.37 µM,CCN(CC)CCNC(=O)c1ccc2c(c1)NC(=O)/C(=C\c1ccccc1F)S2
23,62.3 µM,CCN(CC)CCNC(=O)c1ccc2c(c1)NC(=O)c1ccccc1O2
24,24.5 µM,CCN(CC)CCNC(=O)c1ccc2c(c1)NC(=O)/C(=C\c1ccc(OC)c(OC)c1)S2
25,11.3 µM,CCN1CCCC1CNC(=O)c1ccc2c(c1)NC(=O)/C(=C/c1ccccc1OC)S2 (configuration not stated)
26,43.6 µM,CN(C)CCNC(=O)c1ccc2c(c1)NC(=O)/C(=C\c1cccc(Cl)c1)S2
27,> 80 µM (inactive),COc1ccc(/C=C2/Sc3ccc(C(=O)NCCN4CCCCCC4)cc3NC2=O)cc1

# Continued, compound first:
row,SMILES,IC50
1,Cc1ccc(C(=O)Nc2nnc(S(=O)(=O)N3CCCc4ccccc43)s2)cc1,54.6 µM
2,O=C1COc2ccc(C(=O)NCCN3CCCC3)cc2N1,> 80 µM (inactive)
3,O=C1COc2ccc(C(=O)NCCN3CCOCC3)cc2N1,> 80 µM (inactive)
4,CCN1CCCC1CNC(=O)c1ccc2c(c1)N(Cc1ccccc1F)C(=O)c1ccccc1S2 (configuration not stated),> 80 µM (inactive)
5,Cc1cccc(C(=O)Nc2nnc(S(=O)(=O)N3CCCc4ccccc43)s2)c1,> 80 µM (inactive)
6,CCN(CCNC(=O)c1ccc2c(c1)NC(=O)c1ccccc1S2)c1ccccc1,> 80 µM (inactive)
7,CCN1CCCC1CNC(=O)c1ccc2c(c1)NC(=O)/C(=C/c1cccc3ccccc13)S2 (configuration not stated),4.2 µM
8,Cc1cccc(N2CCN(CCNC(=O)c3ccc4c(c3)NC(=O)c3ccccc3S4)CC2)c1C,47.9 µM
9,Cc1cccc(C(=O)Nc2nnc(S(=O)(=O)N3CCOCC3)s2)c1,24.2 µM
10,CCN1CCCC1CNC(=O)c1ccc2c(c1)N(Cc1ccc(C(F)(F)F)cc1)C(=O)c1ccccc1S2 (configuration not stated),> 80 µM (inactive)
11,COc1ccc(C(=O)Nc2nnc(S(=O)(=O)N3CCCCCC3)s2)cc1OC,5.48 µM
12,Cc1ccc(C(=O)Nc2nnc(S(=O)(=O)N3c4ccccc4CC3C)s2)cc1 (configuration not stated),> 80 µM (inactive)
13,CN(CCNC(=O)c1ccc2c(c1)NC(=O)c1ccccc1S2)C1CCCCC1,28.6 µM
14,O=C(Nc1nnc(S(=O)(=O)N2CCCCCC2)s1)c1cccc(F)c1,18.1 µM
15,O=C(Nc1nnc(S(=O)(=O)N2CCCCC2)s1)c1cccc(F)c1,34 µM
16,Cc1ccccc1C(=O)Nc1nnc(S(=O)(=O)N2CCCc3ccccc32)s1,46.9 µM
17,CCN(CC)CCNC(=O)c1ccc2c(c1)N(Cc1ccc(C)cc1)C(=O)c1ccccc1S2,> 80 µM (inactive)
18,O=C(Nc1nnc(S(=O)(=O)N2CCCCCC2)s1)c1ccccc1,13.3 µM
19,CCN(CCNC(=O)c1ccc2c(c1)N(CC)C(=O)c1ccccc1S2)c1ccccc1,44.6 µM
20,O=C(Nc1nnc(S(=O)(=O)N2CCCCCC2)s1)c1ccco1,33.3 µM

row,SMILES,IC50
1,CN(C)CCNC(=O)c1ccc2c(c1)NC(=O)CO2,> 80 µM (inactive)
2,O=C(NCCN1CCCC1)c1ccc2c(c1)NC(=O)c1ccccc1S2,60.5 µM
3,CCN1CCCC1CNC(=O)c1ccc2c(c1)NC(=O)/C(=C\c1ccccc1Cl)S2 (configuration not stated),3.32 µM
4,COc1ccccc1C(=O)Nc1nnc(S(=O)(=O)N2CCCCCC2)s1,10 µM
5,CCN1CCCC1CNC(=O)c1ccc2c(c1)NC(=O)c1ccccc1O2 (configuration not stated),11.9 µM
6,O=C(Nc1nnc(S(=O)(=O)N2CCCc3ccccc32)s1)c1cccc(F)c1,15.9 µM
7,Cc1cccc(C(=O)Nc2nnc(S(=O)(=O)N3c4ccccc4CC3C)s2)c1 (configuration not stated),> 80 µM (inactive)
8,CCC(C)N(CCNC(=O)c1ccc2c(c1)NC(=O)c1ccccc1S2)C1CCCCC1 (configuration not stated),4.02 µM
9,CCN1CCCC1CNC(=O)c1ccc2c(c1)NC(=O)CS2 (configuration not stated),> 80 µM (inactive)
10,Cc1cccc(C(=O)Nc2nnc(S(=O)(=O)N3CCC(C)CC3)s2)c1,9.09 µM
11,CCOc1ccc(C(=O)Nc2nnc(S(=O)(=O)N3CCCCCC3)s2)cc1,23.8 µM
12,O=C(NCCN1CCOCC1)c1ccc2c(c1)NC(=O)c1ccccc1O2,> 80 µM (inactive)
13,CCN1CCCC1CNC(=O)c1ccc2c(c1)N(Cc1ccccc1Cl)C(=O)c1ccccc1S2 (configuration not stated),> 80 µM (inactive)
14,CCN1CCCC1CNC(=O)c1ccc2c(c1)NC(=O)CO2 (configuration not stated),41.4 µM
15,Cc1ccc(C(=O)Nc2nnc(S(=O)(=O)N3CCCCCC3)s2)cc1,10.7 µM
16,O=C(Nc1nnc(S(=O)(=O)N2CCCCCC2)s1)c1cccc(Cl)c1,20.3 µM
17,CN(C)CCNC(=O)c1ccc2c(c1)NC(=O)c1ccccc1O2,> 80 µM (inactive)
18,O=C(NCCN1CCCCC1)c1ccc2c(c1)NC(=O)c1ccccc1O2,31.6 µM
19,CCN(CCNC(=O)c1ccc2c(c1)N(Cc1cc(C)ccc1C)C(=O)c1ccccc1S2)c1ccccc1,48.2 µM
20,O=C(Nc1nnc(S(=O)(=O)N2CCCCCC2)s1)c1ccccc1F,35.2 µM

row,SMILES,IC50
1,CN1CCN(C(=O)c2ccc3c(c2)NC(=O)/C(=C/c2ccccc2Cl)S3)CC1,> 80 µM (inactive)
2,O=C1Nc2cc(C(=O)NCCN3CCCCCC3)ccc2S/C1=C/c1ccccc1Cl,> 80 µM (inactive)
3,O=C1COc2ccc(C(=O)NCCN3CCCCC3)cc2N1,77 µM
4,CCN(CC)CCNC(=O)c1ccc2c(c1)N(Cc1ccccc1Cl)C(=O)c1ccccc1S2,> 80 µM (inactive)
5,O=C(NCCN1CCCC1)c1ccc2c(c1)NC(=O)c1ccccc1O2,35.6 µM
6,O=C(Nc1nnc(S(=O)(=O)N2CCCCCC2)s1)C1CCCCC1,38.5 µM
7,O=C(Nc1nnc(S(=O)(=O)N2CCCCCC2)s1)c1ccc(F)cc1,43.9 µM
8,CC1Cc2ccccc2N1S(=O)(=O)c1nnc(NC(=O)c2cccc(F)c2)s1 (configuration not stated),30.8 µM
9,O=C1Nc2cc(C(=O)NCCN3CCCCCC3)ccc2S/C1=C/c1ccccc1F,11 µM
10,O=C1Nc2cc(C(=O)NCc3ccccc3)ccc2S/C1=C\c1ccccc1F,> 80 µM (inactive)
11,CC1Cc2ccccc2N1S(=O)(=O)c1nnc(NC(=O)c2cccc(Br)c2)s1 (configuration not stated),> 80 µM (inactive)
12,CCN1CCCC1CNC(=O)c1ccc2c(c1)N(Cc1cccc(F)c1)C(=O)c1ccccc1S2 (configuration not stated),> 80 µM (inactive)
13,CCN1CCCC1CNC(=O)c1ccc2c(c1)NC(=O)c1ccccc1S2 (configuration not stated),8.01 µM and 6.42 µM
14,COc1cccc(C(=O)Nc2nnc(S(=O)(=O)N3CCCCCC3)s2)c1,31.6 µM
15,COc1ccc(C(=O)Nc2nnc(S(=O)(=O)N3CCCCCC3)s2)cc1,47.2 µM
16,O=C(Nc1nnc(S(=O)(=O)N2CCCCCC2)s1)c1cccc(Br)c1,7.09 µM
17,Cc1cccc(C(=O)Nc2nnc(S(=O)(=O)N3CCCCCC3)s2)c1,5.79 µM
18,Cc1ccc(CN2C(=O)c3ccccc3Sc3ccc(C(=O)NCCN(C)C)cc32)cc1,> 80 µM (inactive)
19,Cc1ccccc1C(=O)Nc1nnc(S(=O)(=O)N2CCCCCC2)s1,11.6 µM
20,O=C(Nc1nnc(S(=O)(=O)N2CCOCC2)s1)c1cccc(F)c1,51.9 µM
